What was measured:
[1] = test system: DSS induced acute intestinal fibrosis model of mouse; assay: DSS induced acute intestinal fibrosis model of mouse (Example 2); format: in vivo, Balb/c mice; conditions: 3% DSS Day 1-7, compared with model group; for blue staining area of colon tissues, area ratio of blue collagen fibers to colon tissue in Masson staining (FIG. 4B): #P≤0.05; for content of serum IL-6 (FIG. 7) / content of serum MMP-12 (FIG. 7) / collagenous fiber of colon tissues, Masson stained slice (FIG. 4A) / colon Ly-6g+ cells (neutrophile granulocyte infiltration), immunohistochemical staining (FIG. 6) / colon mucous layer α-SMA protein expression, immunohistochemical staining (FIG. 5): 120 μg/kg s.c. once/day; for content of serum IL-6 (FIG. 7) / content of serum MMP-12 (FIG. 7): 9th day serum, ##P≤0.01
Excerpt: The DSS in this example is purchased from MP Biomedicals (CAS No.: 9011-18-1), and the positive control compound 6-thioguanine (6-TG) is a compound based on prior art and is purchased from Shanghai Aladdin Biochemical Technology Co., Ltd. (CAS No.: 154-42-7).
(§1) After 7 days of adaptive feeding, 114 Balb/c mice of 6-8 weeks age (purchased from Guangdong Medical Laboratory Animal Center, with weight approx. 16-20 g) are subjected to the experiment. Then randomly put the mice into 19 groups, with 6 mice in each group. The groups are normal group, model group, 6-TG group and polypeptide compound groups 1-16.
Model the 19 groups of mice and administer the drug to them for 8 days. In the 8 days, the normal group is given normal drinking water and is given subcutaneous injection of PBS once every day. From Day 1 to Day 7, the model group drinks 3% DSS and is given subcutaneous injection of PBS once every day. On Day 8, 3% DSS is replaced with normal drinking water and subcutaneous injection of PBS is given once. From Day 1 to Day 7, the 6-TG group drinks 3% DSS and is given 2 mg/kg 6-TG by the means of gavage once every day. On Day 8, 3% DSS is replaced with normal drinking water and 2 mg/kg 6-TG is given by the means of gavage once. From Day 1 to Day 7, the polypeptide compound groups 1-16 drink 3% DSS and are given subcutaneous injection of 120 μg/kg polypeptide compounds 1-16 once every day. On Day 8, 3% DSS is replaced with normal drinking water and subcutaneous injection of 120 μg/kg polypeptide compounds 1-16 is given once.
In the drug administration period, the randomly selected polypeptide compound groups 3, 8, 11, 12, 13 and 14 and the normal group, model group and 6-TG group are used for testing, and the body weight, feces consistency and feces OB of the mice are recorded every day. The GraphPad Prism 8.3.0 software is used to plot the data into a diagram. Feces OB is measured by the benzidine method.
On the 9th day, all mice are killed. The serums and colon tissues of the mice are collected. The colon and cecum of the mice are removed together. The colon length is measured. The GraphPad Prism 8.3.0 software is used to plot the data into a diagram.
The serums of the mice from the randomly selected polypeptide compound groups 3, 8, 11, 12, 13 and 14 of the present invention and the normal group and model group are used for cytokine test.
The colons of the mice from the randomly selected polypeptide compound groups 3, 8, 11, 12, 13 and 14 and the normal group, model group and 6-TG group in the present invention are taken. Approx. 5 mm of intestinal segment is taken from the distal end of each colon and is fixed in 10% formalin. The specimens are fixed, dehydrated, wrapped in paraffin and sliced (5 μm). Then tissue HE staining, Masson staining, α-SMA α-SMA protein immunohistochemical staining and Ly-6g protein immunohistochemical staining are completed.

[2] = test system: DSS induced chronic intestinal fibrosis model of mouse; assay: DSS induced chronic intestinal fibrosis model of mouse (Example 3, three cycles); format: in vivo, Balb/c mice; conditions: 2% DSS 5 days then water 2 weeks, 3 cycles, 120 μg/kg s.c. once/day, compared with model group; for blue staining area of colon tissues, area ratio of blue collagen fibers to colon tissue in Masson staining (FIG. 11B): #P≤0.05, ##P≤0.01; for content of serum IL-6 (FIG. 13) / content of serum MMP-8 (FIG. 13): serum at end of three cycles
Excerpt: as §1
In the whole process, the normal group is given normal drinking water and is given subcutaneous injection PBS once every day. The model group is first given 2% DSS for 5 days and then given normal drinking water for 2 weeks. This is 1 cycle. The cycle is done 3 times. Subcutaneous injection of PBS is given once every day. The 6-TG group is first given 2% DSS for 5 days and then given normal drinking water for 2 weeks. This is 1 cycle. The cycle is done 3 times. 2 mg/kg 6-TG is given by the means of gavage once every day. The polypeptide compound groups 1-16 are first given 2% DSS for 5 days and then given normal drinking water for 2 weeks. This is 1 cycle. The cycle is done 3 times. Subcutaneous injection of 120 μg/kg polypeptide compounds 1-16 is given once every day.
During the administration period, the polypeptide compound groups 3, 8, 11, 12, 13 and 14 and the normal group, model group and 6-TG group are randomly selected, and the body weight, feces consistency and feces OB of the mice are recorded every day. The GraphPad Prism 8.3.0 software is used to plot the data into a diagram.
After completion of the 3rd cycle, the mice are dissected. The serums and colon tissues of the mice are collected. The colon and cecum are removed together. The colon length is measured. The GraphPad Prism 8.3.0 software is used to plot the data into a diagram.
The serums of the mice from the randomly selected polypeptide compound groups 3, 8, 11, 12, 13 and 14 and the normal group and model group of the present invention are used for cytokine test.
The colons of the mice from the randomly selected polypeptide compound groups 3, 8, 11, 12, 13 and 14 and the normal group and model group in the present invention are taken. Approx. 5 mm of intestinal segment is taken from the distal end of each colon and is fixed in 10% formalin. The specimens are fixed, dehydrated, wrapped in paraffin and sliced (5 μm). Then tissue HE staining, Masson staining and Fibronectin protein immunohistochemical staining are completed.

[3] = polypeptide 120 μg/kg s.c. or 6-TG 2 mg/kg p.o. once/day, Day 1 to Day 8
[4] = polypeptide 120 μg/kg s.c. or 6-TG 2 mg/kg p.o. once/day

Compound | body weight (daily conditions, FIG. 2) [1, 3] | loose feces and hematochezia conditions (feces consistency and feces OB scores, FIG. 2) [1, 3] | colon tissue morphology, HE stained slice (FIG. 3) [1, 4] | blue staining area of colon tissues, area ratio of blue collagen fibers to colon tissue in Masson staining (FIG. 4B) [1, 4] | content of serum IL-6 (FIG. 7) [1] | content of serum MMP-12 (FIG. 7) [1] | collagenous fiber of colon tissues, Masson stained slice (FIG. 4A) [1] | colon Ly-6g+ cells (neutrophile granulocyte infiltration), immunohistochemical staining (FIG. 6) [1] | colon mucous layer α-SMA protein expression, immunohistochemical staining (FIG. 5) [1] | collagenous fiber of colon tissues, Masson stained slice (FIG. 11A) [2] | colon mucous layer Fibronectin protein expression, immunohistochemical staining (FIG. 12) [2] | colon tissue morphology, HE stained slice (FIG. 10) [2] | blue staining area of colon tissues, area ratio of blue collagen fibers to colon tissue in Masson staining (FIG. 11B) [2] | content of serum IL-6 (FIG. 13) [2] | content of serum MMP-8 (FIG. 13) [2]
Nc1nc2nc[nH]c2c(=S)[nH]1 [Compound 6-TG, 6-thioguanine, reference compound] | decrease the body weight | noticeably improve the loose feces and hematochezia conditions | relatively improved | not improved |  |  |  |  |  |  |  |  |  |  | 
His-(D-Ser)-Gln-Gly-Thr-Phe-Thr-Ser-Asp-Lys(Gly-Gly-Ser-Gly-Ser-Gly-γGlu-CO(CH2)18-COOH)-Ser-Lys-Tyr-Leu-Glu-Aib-Lys-Ala-Ala-Gln-Asp-Phe-Val-Glu-Trp-Leu-Lys-Ala-Gly-Gly-Pro-Ser-Ser-Gly-Ala-Pro-Pro-Pro-Ser (HXQGTFTSDKSKYLEXKAAQDFVEWLKAGGPSSGAPPPS; D-Ser, Aib, γGlu-C20 diacid lipidation; Compound 13; (2)..(2) X=D-Ser; (10)..(10) A side chain of Lys is linked to -Gly-Gly-Ser-Gly-Ser-Gly-AGlu-CO(CH2)18-COOH; (16)..(16) X=Aib) |  |  | become intact | noticeably decrease | clearly decreases | clearly decreases | noticeably decrease | clearly decrease | clearly decreased | noticeably decrease | clearly decreased | become intact | noticeably decrease | clearly decreases | clearly decreases
His-(D-Ser)-Gln-Gly-Thr-Phe-Thr-Ser-Asp-Lys(Gly-Gly-Ser-Gly-Ser-Gly-γGlu-CO(CH2)18-COOH)-Ser-Lys-Tyr-Leu-Glu-Aib-Lys-Ala-Ala-Gln-Asp-Phe-Val-Glu-Trp-Leu-Lys-Ala-Gly-Gly-Pro-Ser-Ser-Gly-Ala-Pro-Pro-Pro-Ser-NH2 (HXQGTFTSDKSKYLEXKAAQDFVEWLKAGGPSSGAPPPS; D-Ser, Aib, γGlu-C20 diacid lipidation, C-amide; Compound 14; (2)..(2) X=D-Ser; (10)..(10) A side chain of Lys is linked to -Gly-Gly-Ser-Gly-Ser-Gly-AGlu-CO(CH2)18-COOH; (16)..(16) X=Aib) |  |  | become intact | noticeably decrease | clearly decreases | clearly decreases | noticeably decrease | clearly decrease | clearly decreased | noticeably decrease | clearly decreased | become intact | noticeably decrease | clearly decreases | clearly decreases
